According to PMC9278656 (Journal of medicinal chemistry, 2021):

Tests used:
[1] = Caco-2 permeability; assay type: in vitro ADME; conditions: human
[2] = read-out: KZn; order of magnitude, stated in Conclusions
[3] = Ionophore activity; conditions: larger number indicates weaker ionophore activity

C/C(=N\NC(=S)N1CCC1)c1ccccn1 [ZMC1, (E)-N′-(1-(Pyridin-2-yl)ethylidene)azetidine-1-carbothiohydrazide, reference compound]
Papp at 90 min, 5 μM [1]: 15.6 ± 1.3 ×10⁻⁶ cm/s
Kd [2]: 10 nM
Ionophore Ji drug/Ji DMSO [3]: 12.4 -log[mol/m^2s]
